{"source": "patent US20230181602A1", "about": "“TREATMENT OF NON-ALCOHOLIC STEATOHEPATITIS (NASH)” (DURECT CORPORATION, priority 2020, published 2023)", "key": {"[1]": {"test": "Metabolite profiling of plasma and feces after oral dose in rats", "assay_type": "in vivo", "conditions": "75 mg/kg oral", "experimental": "Radiolabeled components in plasma and feces extracts were profiled and identified using radio-high performance liquid chromatography (HPLC) and high performance liquid chromatography/mass spectrometry (HPLC/MS) methods.\nPlasma pools were prepared for Group 1 (75 mg/kg, [^14C]-25HC3S) samples collected at 2, 4, and 6 hours post-dose. […] One metabolite M29 was identified as 25-hydroxycholesterol with 37% ROI and a concentration of 1233 ng-equiv./g.\nFeces pools were prepared for Group 2 (75 mg/kg, [^14C]-25HC3S) samples collected from 0 to 24, 24 to 48, 48 to 72, 72 to 96, 96 to 120, 120 to 144, and 144 to 168 hours post-dose. A total of eleven metabolites were identified. None of the metabolites were present at ≥5% of dose. Metabolites present at 2-5% of dose were M1 (4.5% of total dose and 1%-69% ROI), M3 (4.6% of total dose and 1%-44% ROI), M4 (2.0% of total dose and 0%-10% ROI), M8 (3.1% of total dose and 1%-46% ROI), […], and M30 (3.3% of total dose and 0%-5% ROI)."}, "[2]": {"test": "Plasma pharmacokinetics after single oral (gavage) dose in rats", "assay_type": "in vivo", "conditions": "75 mg/kg single oral (gavage) dose", "experimental": "The terminal elimination phase T1/2 was 27.3 hours."}, "[3]": {"test": "Tissue distribution by quantitative whole body autoradiography after single intravenous dose", "assay_type": "in vivo, Sprague Dawley rats", "conditions": "10 mg/kg intravenous", "from_the_text": "(§1) The objectives of this study were to determine the plasma pharmacokinetics of [4-^14C]-25HC3S-derived radioactivity in male Sprague Dawley rats, determine the routes of elimination and excretion mass balance of [4-^14C]-25HC3 S-derived radioactivity in male Sprague Dawley rats, determine the tissue distribution and tissue pharmacokinetics of [4-^14C]-25HC3S-derived radioactivity using quantitative whole body autoradiography methods in male Sprague Dawley and Long Evans rats following a single intravenous (bolus) dose, and to provide plasma, urine, and fecal homogenate samples for metabolite profiling of [4-^14C]-25HC3 S-derived radioactivity.\n(§2) Nine male Sprague Dawley rats (Group 1) were designated for the pharmacokinetic phase, 3 male Sprague Dawley rats (Group 2) for the excretion mass balance phase, and 7 male Sprague Dawley rats (Group 3) and 9 male Long Evans rats (Group 4) for the tissue distribution phase. All animals received a single intravenous dose of [^14C]-25HC3S at 10 mg/kg and a target radioactivity of 225 μCi/kg. Blood samples were collected from all Group 1 animals at approximately 0.083, 0.25, 0.5, 1, 2, 4, 8, 12, 24, 48, and 72 hours post-dose. Urine and feces were collected from all Group 2 animals periodically through 168 hours post-dose. […] Following blood collection, animals were euthanized by CO2 inhalation and carcasses frozen in a dry ice/hexane bath for processing by quantitative whole body autoradiography. Whole blood, plasma, urine, feces, cage rinse, and cage wash were analyzed for total radioactivity by liquid scintillation counting."}, "[4]": {"test": "Excretion after single oral (gavage) dose in rats", "assay_type": "in vivo", "conditions": "75 mg/kg single oral (gavage) dose"}, "[5]": {"test": "Plasma pharmacokinetics of radioactivity after single intravenous dose in rats", "assay_type": "in vivo, Sprague Dawley rats", "conditions": "10 mg/kg single intravenous (bolus) dose", "from_the_text": "as §1, §2"}, "[6]": {"test": "Tissue distribution by quantitative whole body autoradiography after single oral (gavage) dose", "assay_type": "in vivo, Sprague Dawley rats", "conditions": "75 mg/kg oral"}, "[7]": {"test": "Single dose safety and pharmacokinetic study in subjects with NASH and control healthy subjects", "assay_type": "in vivo, human", "experimental": "The present Example was a randomized, dose ranging, single dose safety and pharmacokinetic study of 25HC3S administered to subjects with NASH and control healthy subjects. […] For each cohort, 10 subjects with NASH were enrolled which were further classified into cirrhotic and non-cirrhotic. Each subject received only one dose of study treatment. The second cohort was dosed after a review of safety and tolerability data from Cohort 1."}}, "data": [{"molecule": "desmosterol sulfate", "values": [{"measurement": "presence in plasma or feces samples", "setting": "[1]", "value": "not found"}]}, {"molecule": "C[C@H](CCCC(C)(C)O)[C@H]1CC[C@H]2[C@@H]3CC=C4[14CH2][C@@H](OS(=O)(=O)O)CC[C@]4(C)[C@H]3CC[C@]12C", "note": "[[4-^14C]-25HC3S]", "values": [{"measurement": "plasma AUClast (radioactivity)", "setting": "[2]", "value": "96,400 h·ng equiv./g"}, {"measurement": "terminal elimination phase T1/2", "setting": "[2]", "value": 27.3, "unit": "h"}, {"measurement": "AUClast in liver", "setting": "[3]", "value": "≤ 364,000 h·ng/g"}, {"measurement": "concentrations in thymus, bone (femur), uveal tract, fat, testes, and brain (approximate)", "setting": "[3]", "value": "around 1500 ng-equiv./g"}, {"measurement": "concentrations in thymus, bone (femur), uveal tract, fat, testes, and brain (bound)", "setting": "[3]", "value": "< 5000", "unit": "ng-equiv./g"}, {"measurement": "tissue concentrations by 168 hours postdose", "setting": "[3]", "value": "below quantitation limit in all tissues except adrenal gland, harderian gland, liver, and small intestine"}, {"measurement": "tissue:plasma ratio (AUClast), liver", "setting": "[3]", "value": 11.4}, {"measurement": "tissue:plasma ratio (AUClast), small intestine (wall)", "setting": "[3]", "value": 7.44}, {"measurement": "tissue distribution of drug and/or its metabolites", "setting": "[3]; Group 3", "value": "broadly distributed and detected by quantitative whole body autoradiography in all tissues except the eye (lens)"}, {"measurement": "dose recovered in urine, feces, and cage rinse", "setting": "[4]", "value": "approximately 94.5%"}, {"measurement": "recovered radioactivity in feces", "setting": "[4]", "value": 94.2, "unit": "%"}, {"measurement": "mean plasma C0 (radioactivity)", "setting": "[5]", "value": "25,900 ng-equiv./g"}, {"measurement": "plasma AUClast (radioactivity)", "setting": "[5]", "value": "27,900 h*ng-equiv./g"}, {"measurement": "terminal elimination phase T1/2, plasma", "setting": "[5]", "value": 26.6, "unit": "h"}, {"measurement": "plasma:whole blood AUClast ratio", "setting": "[6]", "value": 1.12}, {"measurement": "skin, thymus, prostate, and pituitary tissue concentrations", "setting": "[6]", "value": "< 3000", "unit": "ng equiv./g"}, {"measurement": "tissue Tmax", "setting": "[6]", "value": "≤ 6", "unit": "h"}, {"measurement": "tissue concentrations by 168 hours post-dose", "setting": "[6]", "value": "near or below the quantitation limit in all tissues except adrenal gland and liver"}, {"measurement": "tissue distribution of drug and/or its metabolites", "setting": "[6]", "value": "broadly distributed and detected by quantitative whole body autoradiography in all tissues except the eye (lens)"}, {"measurement": "tissue:plasma ratio (AUClast), adrenal gland", "setting": "[6]", "value": 6.64}, {"measurement": "tissue:plasma ratio (AUClast), liver", "setting": "[6]", "value": 6.96}, {"measurement": "tissue:plasma ratio (AUClast), small intestine (wall)", "setting": "[6]", "value": 15.4}, {"measurement": "uveal tract and brain concentrations", "setting": "[6]", "value": "approximately 1000 ng equiv./g"}, {"measurement": "whole blood AUClast", "setting": "[6]", "value": "127,000 h·ng equiv./g"}]}, {"molecule": "C[C@H](CCCC(C)(C)O)[C@H]1CC[C@H]2[C@@H]3CC=C4C[C@@H](OS(=O)(=O)[O-])CC[C@]4(C)[C@H]3CC[C@]12C.[Na+]", "note": "[25HC3S sodium]", "values": [{"measurement": "difference between healthy and NASH subjects in pharmacokinetics (Cmax and AUC)", "setting": "[7]; 50 mg and 200 mg", "value": "no clear difference"}, {"measurement": "increase of geometric mean Cmax in NASH subjects over healthy subjects", "setting": "[7]; Cohorts 1 and 2", "value": "18-24%"}, {"measurement": "increasing trends in exposure (AUC parameters) in NASH subjects", "setting": "[7]; NASH versus healthy subjects", "value": "up to 31%"}]}]}
